According to US20110280831A1, “COMBINATIONS COMPRISING METHOTREXATE AND DHODH INHIBITORS” (priority 2009, published 2011):

Each compound was assayed against human DHODH (Homo sapiens, UniProt Q02127) (assay: Inhibition of human DHODH activity assay (DCIP chromogen reduction)). Conditions: enzyme extracts, 10 min at room temperature, absorbance at 600 nm, duplicate; read-out: hDHODH IC50.
Format: biochemical
Method: DHODH activity and its inhibition were studied using a chromogen reduction assay with DCIP (2,6-dichlorophenol-indophenol).
Enzyme extracts (8 μl, ˜1.5 μg of human protein) were incubated in 96-well plates. The assay mixture (200 μl) contained 200 μM CoQD, 100 μM L-DHO, 120 μM DCIP in the assay buffer (100 mM HEPES pH 8.0, 150 mM NaCl, 10% Glicerol, 0.05% Triton X-100) and 2 μl of test compound. The compounds were dissolved in DMSO at a stock concentration of 1 mM, and tested at different concentrations varying from 10 μM to 1 pM to calculate an IC50 (concentration of inhibitor required for 50% of inhibition).
The reaction was initiated by adding the enzyme and then incubated for 10 min at room temperature before measuring DCIP reduction by counting a decrease in absorbance at 600 nm using standard instrumentation (Spectramax).
All reactions were carried out in duplicate and graphs, determining IC50 values for each compound, were plotted using the ABase software.

Sequence of human DHODH (Q02127 whole entry): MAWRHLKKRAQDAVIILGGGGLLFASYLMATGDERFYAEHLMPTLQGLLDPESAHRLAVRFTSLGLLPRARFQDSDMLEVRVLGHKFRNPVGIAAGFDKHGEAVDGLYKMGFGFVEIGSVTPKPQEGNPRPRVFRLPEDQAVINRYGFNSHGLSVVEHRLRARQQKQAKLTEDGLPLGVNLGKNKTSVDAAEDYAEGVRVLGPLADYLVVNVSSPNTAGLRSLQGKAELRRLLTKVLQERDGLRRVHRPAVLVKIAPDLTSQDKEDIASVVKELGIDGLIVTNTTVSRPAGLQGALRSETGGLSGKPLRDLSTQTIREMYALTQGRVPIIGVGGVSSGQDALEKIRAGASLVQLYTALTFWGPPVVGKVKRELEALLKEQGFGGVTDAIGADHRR

IC50 [nM] | Structure (SMILES)
20 | Cc1ccc(Nc2cnc(-c3ccccc3C(F)(F)F)c(C)c2)c(C(=O)O)c1 [Compound 93, 5-Methyl-2-(5-methyl-6-(2-(trifluoromethyl)phenyl)pyridin-3-ylamino)benzoic acid]
2 | O=C(O)c1cc(C2CC2)ccc1Nc1cnc(-c2ccccc2)c(C(F)(F)F)c1 [Compound 105, 5-Cyclopropyl-2-(6-phenyl-5-(trifluoromethyl)pyridin-3-ylamino)benzoic acid]
90 | Cc1ccc(Nc2ccc(-c3ccncc3F)nc2)c(C(=O)O)c1 [Compound 116, 2-(3′-Fluoro-2,4′-bipyridin-5-ylamino)-5-methylbenzoic acid]
12 | Cc1ccccc1-c1ncc(Nc2ccc(C3CC3)cc2C(=O)O)cn1 [Compound 129, 2-(2-o-tolylpyrimidin-5-ylamino)-5-cyclopropylbenzoic acid]
97 | COc1ccc(F)c(-c2cc(C)c(Nc3ccc(C)cc3C(=O)O)cn2)c1 [Compound 75, 2-(6-(2-Fluoro-5-methoxyphenyl)-4-methylpyridin-3-ylamino)-5-methylbenzoic acid]
30 | CCOc1cccc(-c2ncc(Nc3ccc(C)cc3C(=O)O)cc2C)c1 [Compound 42, 2-(6-(3-Ethoxyphenyl)-5-methylpyridin-3-ylamino)-5-methylbenzoic acid]
37 | Cc1ccc(Nc2cnc(-c3ccncc3F)c(C)c2)c(C(=O)O)c1 [Compound 101, 2-(3′-Fluoro-3-methyl-2,4′-bipyridin-5-ylamino)-5-methylbenzoic acid]
146 | Cc1ccc(Nc2ccc(-c3ccc(F)cc3F)nc2)c(C(=O)O)c1 [Compound 141, 2-(6-(2,4-difluorophenyl)pyridin-3-ylamino)-5-methylbenzoic acid]
10 | O=C(O)c1cc(C2CC2)ccc1Nc1cnc(-c2ccccc2)c(-c2ccccc2)c1 [Compound 19, 5-Cyclopropyl-2-(5,6-diphenylpyridin-3-ylamino)benzoic acid]
113 | O=C(O)c1cc(C2CC2)ccc1Nc1cncc(-c2ccccc2)c1 [Compound 15, 5-cyclopropyl-2-(5-phenylpyridin-3-ylamino)benzoic acid]
21 | COc1cccc(-c2ncc(Nc3ccc(C)cc3C(=O)O)cc2C)c1 [Compound 51, 2-(6-(3-Methoxyphenyl)-5-methylpyridin-3-ylamino)-5-methylbenzoic acid]
46 | COc1ccc(F)cc1-c1ncc(Nc2ccc(C)cc2C(=O)O)cc1C [Compound 148, 2-(6-(5-fluoro-2-methoxyphenyl)-5-methylpyridin-3-ylamino)-5-methylbenzoic acid]
19 | CCOc1ccc(F)c(-c2ccc(Nc3ccc(C)cc3C(=O)O)cn2)c1 [Compound 54, 2-(6-(5-Ethoxy-2-fluorophenyl)pyridin-3-ylamino)-5-methylbenzoic acid]
145 | O=C(O)c1cc(Cl)ccc1Nc1ccc(-c2ccccc2Cl)nc1 [Compound 110, 5-Chloro-2-(6-(2-chlorophenyl)pyridin-3-ylamino)benzoic acid]
4 | O=C(O)c1cc(C2CC2)ccc1Nc1ccc(-c2ccccc2Cl)nc1 [Compound 112, 2-(6-(2-Chlorophenyl)pyridin-3-ylamino)-5-cyclopropylbenzoic acid]
11 | Cc1ccc(Nc2cnc(-c3cccc(OC(C)C)c3)c(C)c2)c(C(=O)O)c1 [Compound 67, 2-(6-(3-Isopropoxyphenyl)-5-methylpyridin-3-ylamino)-5-methylbenzoic acid]
18 | Cc1ccc(Nc2cnc(-c3ccccc3)c(F)c2)c(C(=O)O)c1 [Compound 8, 2-(5-Fluoro-6-phenylpyridin-3-ylamino)-5-methylbenzoic acid]
98 | Cc1ccc(Nc2ccc(-c3cccc(C(F)(F)F)c3)nc2)c(C(=O)O)c1 [Compound 4, 5-Methyl-2-(6-(3-(trifluoromethyl)phenyl)pyridin-3-ylamino)benzoic acid]
119 | Cc1ccc(Nc2cnc(N3CCCCCC3)c(C)c2)c(C(=O)O)c1 [Compound 31, 2-(6-(Azepan-1-yl)-5-methylpyridin-3-ylamino)-5-methylbenzoic acid]
33 | Cc1ccc(Nc2cnc(-c3cccc(C(=O)N(C)C)c3)c(C)c2)c(C(=O)O)c1 [Compound 79, 2-(6-(3-(Dimethylcarbamoyl)phenyl)-5-methylpyridin-3-ylamino)-5-methylbenzoic acid]
78 | CCOc1cccc(-c2cc(C)c(Nc3ccc(C)cc3C(=O)O)cn2)c1 [Compound 44, 2-(6-(3-Ethoxyphenyl)-4-methylpyridin-3-ylamino)-5-methylbenzoic acid]

IC50 [nM] | Structure (SMILES)
91 | Cc1ccc(Nc2ccc(-c3ccccc3F)nc2)c(C(=O)O)c1 [Compound 57, 2-(6-(2-Fluorophenyl)pyridin-3-ylamino)-5-methylbenzoic acid]
62 | Cc1ccc(Nc2cc(Cl)cnc2-c2ccccc2)c(C(=O)O)c1 [Compound 18, 2-(5-Chloro-2-phenylpyridin-3-ylamino)-5-methylbenzoic acid]
190 | CCOc1cccc(-c2ccc(Nc3ccc(C)cc3C(=O)O)cn2)c1 [Compound 41, 2-(6-(3-Ethoxyphenyl)pyridin-3-ylamino)-5-methylbenzoic acid]
9 | Cc1ccc(Nc2cnc(-c3cccc(C(=O)N4CCCC4)c3)c(C)c2)c(C(=O)O)c1 [Compound 125, 5-Methyl-2-(5-methyl-6-(3-(pyrrolidine-1-carbonyl)phenyl)pyridin-3-ylamino)benzoic acid]
105 | O=C(O)c1cc(C2CC2)ccc1Nc1cnc(-c2ccccc2)nc1 [Compound 1, 5-cyclopropyl-2-(2-phenylpyrimidin-5-ylamino)benzoic acid]
114 | O=C(O)c1cc(C2CC2)ccc1Nc1cnc(-c2cccc(OC3CC3)c2)nc1 [Compound 22, 2-(2-(3-Cyclopropoxyphenyl)pyrimidin-5-ylamino)-5-cyclopropylbenzoic acid]
57 | O=C(O)c1cc(C2CC2)ccc1Nc1cnc(-c2c(F)cc(O)cc2F)nc1 [Compound 6, 5-cyclopropyl-2-(2-(2,6-difluoro-4-hydroxyphenyl)pyrimidin-5-ylamino)benzoic acid]
8 | O=C(O)c1cc(C2CC2)ccc1Nc1ccc(-c2ccccc2F)nc1 [Compound 138, 2-(6-(2-fluorophenyl)pyridin-3-ylamino)-5-cyclopropylbenzoic acid]
21 | O=C(O)c1cc(C2CC2)ccc1Nc1cnc(-c2cc(OC(F)(F)F)ccc2F)nc1 [Compound 135, 2-(2-(2-fluoro-5-trifluoromethoxyphenyl)pyrimidin-5-ylamino)-5-cyclopropylbenzoic acid]
12 | COc1cccc(-c2ncc(Nc3ccc(C)cc3C(=O)O)cc2C(F)(F)F)c1 [Compound 77, 2-(6-(3-Methoxyphenyl)-5-(trifluoromethyl)pyridin-3-ylamino)-5-methylbenzoic acid]
109 | Cc1ccc(Nc2ccc(-c3ccncc3Cl)nc2)c(C(=O)O)c1 [Compound 34, 2-(3′-chloro-2,4′-bipyridin-5-ylamino)-5-methylbenzoic acid]
28 | O=C(O)c1cc(C2CC2)ccc1Nc1cnc(C2CC2)c(-c2ccccc2)c1 [Compound 25, 5-cyclopropyl-2-(6-cyclopropyl-5-phenylpyridin-3-ylamino)benzoic acid]
9 | O=C(O)c1cc(C2CC2)ccc1Nc1cnc(-c2ccccc2C(F)(F)F)nc1 [Compound 128, 2-(2-(2-trifluoromethylphenyl)pyrimidin-5-ylamino)-5-cyclopropylbenzoic acid]
41 | Cc1ccc(Nc2cnc(N3CCCCC3)c(C)c2)c(C(=O)O)c1 [Compound 30, 5-Methyl-2-(5-methyl-6-(piperidin-1-yl)pyridin-3-ylamino)benzoic acid]
28 | Cc1ccc(Nc2ccc(-c3cc(OC(C)C)ccc3F)nc2)c(C(=O)O)c1 [Compound 66, 2-(6-(2-Fluoro-5-isopropoxyphenyl)pyridin-3-ylamino)-5-methylbenzoic acid]
10 | Cc1ccc(Nc2cnc(-c3cccc(Cl)c3)c(C)c2)c(C(=O)O)c1 [Compound 95, 2-(6-(3-Chlorophenyl)-5-methylpyridin-3-ylamino)-5-methylbenzoic acid]
77 | Cc1ccc(Nc2ccc(-c3c(F)ccc(F)c3F)nc2)c(C(=O)O)c1 [Compound 144, 2-(6-(2,3,6-trifluorophenyl)pyridin-3-ylamino)-5-methylbenzoic acid]
7 | COc1cccc(-c2ncc(Nc3ccc(C4CC4)cc3C(=O)O)cc2C(F)(F)F)c1 [Compound 107, 5-Cyclopropyl-2-(6-(3-methoxyphenyl)-5-(trifluoromethyl)pyridin-3-ylamino)benzoic acid]
12 | Cc1ccc(Nc2cnc(-c3cccc(C(=O)NC4CC4)c3)c(C)c2)c(C(=O)O)c1 [Compound 126, 2-(6-(3-(Cyclopropylcarbamoyl)phenyl)-5-methylpyridin-3-ylamino)-5-methylbenzoic acid]
38 | O=C(O)c1cc(C2CC2)ccc1Nc1cnc(-c2cc(F)ccc2F)nc1 [Compound 131, 2-(2-(2,5-difluorophenyl)pyrimidin-5-ylamino)-5-cyclopropylbenzoic acid]
190 | Cc1ccc(Nc2cnc(-c3cccc(C(N)=O)c3)c(C)c2)c(C(=O)O)c1 [Compound 73, 2-(6-(3-Carbamoylphenyl)-5-methylpyridin-3-ylamino)-5-methylbenzoic acid]
